Structures are written as SMILES.

Experimental findings from patent US20230027929A1, “MrgprX2 Antagonists and Uses Thereof” (Dermira, Inc., priority 2019, published 2023) are described below.

In the assay the target is T1, hMrgpMRGPRX2 (Homo sapiens, UniProt Q96LB1).
T1 construct: expressed in transfected cells
T1 sequence (Q96LB1 1-330): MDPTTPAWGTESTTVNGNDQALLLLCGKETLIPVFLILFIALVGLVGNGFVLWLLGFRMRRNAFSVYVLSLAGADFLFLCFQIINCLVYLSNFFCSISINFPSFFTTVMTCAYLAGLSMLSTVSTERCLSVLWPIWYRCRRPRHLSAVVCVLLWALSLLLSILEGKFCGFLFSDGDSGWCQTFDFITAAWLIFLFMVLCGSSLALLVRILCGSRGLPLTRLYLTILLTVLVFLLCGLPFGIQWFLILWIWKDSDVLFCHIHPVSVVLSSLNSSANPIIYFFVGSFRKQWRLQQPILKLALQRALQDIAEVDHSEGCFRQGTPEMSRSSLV
Put plainly: FLIPR intracellular calcium mobilization, antagonist activity in recombinant hMrgpMRGPRX2 expressing cells. The assay is classed as cell-based. As to conditions: read-out: Human MrgprX2 Antagonist pIC50 (converted). An excerpt: Potent and selective hMrgpMRGPRX2 compounds have been generated from compounds identified during a high throughput screening (HTS) campaign and followed up with cycles of structure activity based medicinal chemistry efforts. These compounds were characterized in recombinant hMrgpMRGPRX2 expressing cells for their antagonist activity and the potency was confirmed in the human mast cell line LAD-2, where the target is endogenously expressed. The assays used to determine potencies are functional read-out looking at intracellular calcium mobilization using the FLIPR™ technology. In these FLIPR assays, we test the identified compounds using recombinant cellular systems expressing mouse MrgprB2, mouse MrgprA1, gerbil MrgpMRGPRX2 orthologue, Chinese hamster MrgpMRGPRX2 orthologue and cynomolgus monkey MrgpMRGPRX2 orthologue, respectively for orthologue activity.
A general note: Calcium flux is commonly read through the fluorescence of an indicator in the cells.
As to `CCN(C[C@@H](O)C(F)(F)F)C(=O)Nc1cc(Oc2ccc(C#N)cc2)ccn1` [Compound E157], the IC50 is 1580 nM. Take `CCN(C[C@@H](O)C(F)(F)F)C(=O)Nc1cnc(OCc2cccc(F)c2)cn1` [Compound E262]: the IC50 is 676 nM. As for `CCN(C[C@@H](O)C(F)(F)F)C(=O)Nc1cnc(Oc2cccc(F)c2C#N)cn1` [Compound E251], the figure is 26.9 nM. Turning to `CC1(C)C(C(=O)Nc2cnc(Oc3cc(F)cc(F)c3)cn2)C1(C)C` [Compound E220], the IC50 was 1.58 nM. As to `CC1(C)CC1C(=O)Nc1ccc(-c2cc(F)cc(F)c2)cn1` (stereo not shown) [Compound E180], the IC50 is 12.6 nM.

`N#C[C@@H]1C[C@@H]1C(=O)Nc1ccc(Oc2ccc(F)c(F)c2)cn1` [Compound E047]: the IC50 is 3160 nM. Under `CC1(C)C(C(=O)Nc2ccc(-n3cc(F)cn3)cn2)C1(C)C` [Compound E087] stands 43.7 nM; under `CC1(C)C(C(=O)Nc2ccc(C#N)cn2)C1(C)C` [Compound E206], 251 nM. Regarding `O=C(Nc1ccc(-c2cc(F)cc(F)c2)cn1)C1CC1` [Compound E179], the IC50 was 200 nM. For `CC1(C)CC1C(=O)Nc1cnc(-c2cc(F)cc(C#N)c2)cn1` (stereo not shown) [Compound E230], the IC50 is 288 nM. Under `CC(C)C(=O)Nc1ccc(Oc2ccc(F)c(C#N)c2)cn1` [Compound E019] stands 7940 nM; under `CCN(C[C@@H](O)C(F)(F)F)C(=O)Nc1cnc(Oc2cc(F)ccc2F)cn1` [Compound E241], 1.7 nM; under `CC(C)N(C)C(=O)Nc1cnc(Oc2cc(F)cc(F)c2)cn1` [Compound E234, 3-[5-(3,5-difluorophenoxy)pyrazin-2-yl]-1-isopropyl-1-methyl-urea], 631 nM.

As for `CCN(C[C@@H](O)C(F)(F)F)C(=O)Nc1ccc(-n2cccn2)cn1` [Compound E142, 1-ethyl-3-(5-pyrazol-1-yl-2-pyridyl)-1-[(2R)-3,3,3-trifluoro-2-hydroxy-propyl]urea], the IC50 was 8710 nM.

As to `O=C(Nc1ccc(Oc2ccc(F)c(F)c2)cn1)C1CC12CC2` (stereo not shown) [Compound E044], the IC50 is 12.6 nM. As to `CCN(C[C@@H](O)C(F)(F)F)C(=O)Nc1cc(Oc2cncc(F)c2)ccn1` [Compound E162, 1-ethyl-3-[4-[(5-fluoro-3-pyridyl)oxy]-2-pyridyl]-1-[(2R)-3,3,3-trifluoro-2-hydroxy-propyl]urea], the IC50 is 19.1 nM. For `COc1ccccc1-c1ccc(NC(=O)C(C)C)nc1` [Compound E169], the IC50 was 2000 nM.

In the case of `CN(C[C@@](C)(O)C(F)(F)F)C(=O)Nc1ccc(Oc2ccc(F)cc2F)cn1` [Compound E141, 3-[5-(2,4-difluorophenoxy)-2-pyridyl]-1-methyl-1-[(2R)-3,3,3-trifluoro-2-hydroxy-2-methyl-propyl]urea], the IC50 was 2.04 nM. Regarding `CC(C)C(=O)Nc1ccc(-c2cccc(C#N)c2)cn1` [Compound E170], the IC50 was 200 nM.

As to `CC(C)C(=O)Nc1ccc(Oc2cccc(F)c2F)cn1` [Compound E009], the IC50 is 79.4 nM. As for `Cc1nc(NC(=O)N(C)C[C@@H](O)C(F)(F)F)ccc1Oc1ccc(F)c(F)c1` [Compound E121], the IC50 is 708 nM. In the case of `CN(C[C@@H](O)C(F)(F)F)C(=O)Nc1cnc(Oc2cccc(F)c2F)cn1` [Compound E243], the IC50 is 58.9 nM. With `N#Cc1cc(F)cc(Oc2ccc(NC(=O)C3CC3)nc2)c1` [Compound E020], the IC50 is 10000 nM. For the compound `CC(C)(CO)C(=O)Nc1ccc(Oc2ccc(F)c(F)c2)cn1` [Compound E039], the IC50 was 3980 nM. Under `CC1(C(=O)Nc2ccc(Oc3ccccc3F)cn2)CCOCC1` [Compound E007] stands 2510 nM; under `CN(C[C@@](C)(O)C(F)(F)F)C(=O)Nc1ccc(Oc2cc(F)cc(F)c2)cn1` [Compound E140, 3-[5-(3,5-difluorophenoxy)-2-pyridyl]-1-methyl-1-[(2R)-3,3,3-trifluoro-2-hydroxy-2-methyl-propyl]urea], 1.58 nM; under `O=C(Nc1ccc(Oc2cc(F)cc(F)c2)cn1)N1CCC[C@@H]1CO` [Compound E132], 575 nM. As for `CCN(C[C@@H](O)C(F)(F)F)C(=O)Nc1ccc(Oc2cc(F)cc(F)c2)cn1` [Compound E117], the figure is 2.04 nM; as for `COc1cccc(-c2ccc(NC(=O)C(C)C)nc2)c1` [Compound E171], 316 nM. Under `CC(C)C(=O)Nc1ccc(Cc2ccccc2F)cn1` [Compound E268] stands 501 nM; under `CC(C)C(=O)Nc1ccc(Oc2ccccc2F)cn1` [Compound E005], 79.4 nM.

Take `C[C@@H](C(=O)Nc1ccccn1)c1ccccc1` [Compound E210]: the IC50 was 2000 nM. Under `CC1(C)C(C(=O)Nc2ccc(-n3ccc(F)n3)cn2)C1(C)C` [Compound E091] stands 8.13 nM; under `CC1(C)CC1C(=O)Nc1cnc(-c2cc(F)ccc2F)cn1` (stereo not shown) [Compound E226, N-[5-(2,5-difluorophenyl)pyrazin-2-yl]-2,2-dimethyl-cyclopropanecarboxamide], 34.7 nM; under `CN(CC(F)(F)F)C(=O)Nc1ccc(Oc2ccc(F)c(F)c2)cn1` [Compound E106], 316 nM. Turning to `CC1(C)C(C(=O)Nc2cc3c(cn2)OCCO3)C1(C)C` [Compound E216], the IC50 was 331 nM. As for `O=C(Nc1ccc(Oc2ccc(F)c(F)c2)cn1)C1CC1(F)F` (stereo not shown) [Compound E028], the figure is 200 nM; as for `CCN(C[C@@H](O)C(F)(F)F)C(=O)Nc1ccc(Oc2ccccc2F)cn1` [Compound E122], 3.8 nM; as for `CC1(C)CC1C(=O)Nc1cnc(-c2cc(F)cc(F)c2)cn1` (stereo not shown) [Compound E228, N-[5-(3,5-difluorophenyl)pyrazin-2-yl]-2,2-dimethyl-cyclopropanecarboxamide], 95.5 nM. In the case of `CC1(C)C(C(=O)Nc2ccc(CN3CCCC3)cn2)C1(C)C` [Compound E270, 2,2,3,3-tetramethyl-N-[5-(pyrrolidin-1-ylmethyl)-2-pyridyl]cyclopropanecarboxamide], the IC50 was 5250 nM. Consider `Cn1cc(Oc2cnc(NC(=O)C3C(C)(C)C3(C)C)cn2)cn1` [Compound E221], for which the IC50 is 28.8 nM. Regarding `CC(C)NC(=O)Nc1ccc(Oc2ccc(F)c(F)c2)cn1` [Compound E107], the IC50 was 6310 nM. In the case of `CC1(C)CC1C(=O)Nc1ccc(-c2cccc(F)c2F)cn1` (stereo not shown) [Compound E183], the IC50 was 19.5 nM.

Regarding `CC1(C)C(C(=O)Nc2ccc(Oc3ccc(F)nc3)cn2)C1(C)C` [Compound E056], the IC50 is 5.01 nM. Under `CC(C)C(=O)Nc1ccc(Oc2ccnc(F)c2)cn1` [Compound E022] stands 10000 nM.

With `CCN(C[C@@H](O)C(F)(F)F)C(=O)Nc1ccc(OCc2cccc(F)c2)cn1` [Compound E138], the IC50 was 871 nM.

`CC(C)C(=O)Nc1ccc(Oc2ccc(F)c(F)c2)cn1` [Compound E010]: the IC50 was 39.8 nM. On to `CC1(C)CC(=O)N(c2ccc(Oc3ccc(F)c(F)c3)cn2)C1` [Compound E284, 1-[5-(3,4-difluorophenoxy)-2-pyridyl]-4,4-dimethyl-pyrrolidin-2-one], for which the IC50 was 1780 nM. As to `CC1(C)C(C(=O)Nc2ccc(N3CCC(F)(F)C3)cn2)C1(C)C` [Compound E100], the IC50 was 34.7 nM.

As to `CC1(C)C(C(=O)Nc2cnc(N3CCCC3)cn2)C1(C)C` [Compound E233, 2,2,3,3-tetramethyl-N-(5-pyrrolidin-1-ylpyrazin-2-yl)cyclopropanecarboxamide], the IC50 is 331 nM. Turning to `COc1cnc(NC(=O)C2C(C)(C)C2(C)C)cn1` [Compound E215], the IC50 was 200 nM. Turning to `CN(C[C@@](C)(O)C(F)(F)F)C(=O)Nc1cnc(Oc2cc(F)ccc2F)cn1` [Compound E250], the IC50 was 2.57 nM. As for `CC(C)C(=O)Nc1ccc(C2CCCC2)cn1` [Compound E177, N-(5-cyclopentyl-2-pyridyl)-2-methyl-propanamide], the figure is 6310 nM; as for `CN1CCC[C@@H]1C(=O)Nc1ccc(Oc2ccc(F)c(F)c2)cn1` [Compound E278, (2R)-N-[5-(3,4-difluorophenoxy)-2-pyridyl]-1-methyl-pyrrolidine-2-carboxamide], 2630 nM; as for `Cn1cc(Oc2ccc(NC(=O)C3C(C)(C)C3(C)C)nc2)cn1` [Compound E073], 3.63 nM. As for `CCN(C[C@@H](O)C(F)(F)F)C(=O)Nc1cnc(-c2cc(F)ccc2F)cn1` [Compound E237], the IC50 is 603 nM. Regarding `CC1(C)C(C(=O)Nc2ccc(Oc3cncc(F)c3)nn2)C1(C)C` [Compound E288, N-[6-[(5-fluoro-3-pyridyl)oxy]pyridazin-3-yl]-2,2,3,3-tetramethyl-cyclopropanecarboxamide], the IC50 is 9120 nM. On to `CC1(C)C(C(=O)Nc2ccc(Oc3cc(F)cc(C(N)=O)c3)cn2)C1(C)C` [Compound E075], for which the IC50 was 501 nM. Under `O=C(Nc1ccc(Oc2cc(F)cc(F)c2)cn1)N1CC[C@@H](CO)C1` [Compound E130] stands 7080 nM; under `CCN(C[C@@H](O)C(F)(F)F)C(=O)Nc1cnc(Oc2cc(F)cc(F)c2)c(C)n1` [Compound E242], 7410 nM. Consider `CC1(C)CC1C(=O)Nc1cnc(-c2cccc(F)c2F)cn1` (stereo not shown) [Compound E229], for which the IC50 was 6610 nM.
